From patent US20170189416A1, “PHARMACEUTICAL COMPOSITION FOR TREATING BREAST CANCER” (MA SHEN KAI RUEi CO., LTD., priority 2015, published 2017)
“Also recorded” adds a separate entry of the source.

Tests used:
MCF-7 = test: MTT survival assay on human breast-cancer cells MCF-7; assay type: cell-based; conditions: MCF-7, MTT assay, isolated compound
From the text: (§1) According to the present invention, the effects such as treating breast cancer, inhibiting the growth of breast cancer cell and others, of Antroquinonol B (AnQB) and/or dehydroeburicoic acid (DeHBA) may be tested by using any of the test methods used in the prior arts, for example, MTT assay of using 3-(4,5-dimethylthiazol-2-yl)-2, S-diphenyl tetrazolium bromide (MTT) to determine cell survival rates of breast cancer cell lines.
(§2) The Antroquinonol B (AnQB) and dehydroeburicoic acid (DeHBA) separately isolated from the Extraction A of Example 1 were added into the culture media of human breast-cancer cells, MCF-7 or MDA-MB-231, to test for tumor cell survival by using anti-cancer drug screen model. This survival assay was carried out with the widely known MTT (3-[4,5-dimethylthiazol-2-yl]2,5-diphenyltetrazolium bromide) assay.
(§3) MCF-7 cell line (purchased from B CRC) is originated from primary breast cancer cells (early stage), sensitive to estrogen and therefore is estrogen-dependent, while MDA-MB-231 is insensitive to estrogen and therefore is estrogen-independent, which is a difficult tumor with a low survival rate.
(§4) The human breast-cancer cells, MCF-7 and MDA-MB-231 were cultivated in media containing fetal calf serum for 36 hours. The proliferated cells were washed once with PBS, then treated with 1× trypsin-EDTA and centrifuged at 2000 rpm for 25 minutes. The supernatant was discarded and the cell pellet was re-suspended in 30 ml of fresh culture medium by gently shaking. The cells were placed in a 96-well plate.
(§5) Subsequently, the plates were read on an ELISA reader to determine the survival rates. The half maximal inhibitory concentration (IC50) values were calculated and results of ex vivo survival assay were thus obtained.
(§6) By using the same manner as the method described above, respectively human breast cancer cell line MCF-7 and MDA-MB-231 was cultured. After then, the pharmaceutical compositions A˜F of the present invention was applied separately, and then MTT assay for each sample was measured to assess the inhibition effectiveness of various cancer cell activity while using pharmaceutical compositions A˜F of the present invention.

MDA-MB-231 = test: MTT survival assay on human breast-cancer cells MDA-MB-231; assay type: cell-based; conditions: MDA-MB-231, MTT assay, isolated compound
From the text: as §1, §2, §3, §4, §5, §6

SMILES	half-maximal inhibitory concentration (IC50) (MCF-7)	survival rate of breast cancer cell line (MCF-7)	half-maximal inhibitory concentration (IC50) (MDA-MB-231)	survival rate of breast cancer cell line (MDA-MB-231)
COC1=C(OC)[C@H](O)[C@H](C/C=C(\C)CC/C=C(/C)C/C=C/C(C)(C)O)[C@@H](C)C1=O [Antroquinonol B]	relatively low	can inhibit the growth of breast cancer cell; also recorded: can decrease the survival rates	relatively low	can inhibit the growth of breast cancer cell; also recorded: can decrease the survival rates
C=C(CC[C@@H](C(=O)O)[C@H]1CC[C@@]2(C)C3=CC[C@H]4C(C)(C)[C@@H](O)CC[C@]4(C)C3=CC[C@]12C)C(C)C [dehydroeburicoic acid]	relatively low	can inhibit the growth of breast cancer cell; also recorded: can decrease the survival rates	relatively low	can inhibit the growth of breast cancer cell; also recorded: can decrease the survival rates
